Measured values reported in US20050239656A1, “Pyridine compounds or salts thereof and herbicides containing the same” (priority 2002, published 2005).

How the values were obtained:
barnyardgrass [1] = assay: Test Example 1: foliage treatment, upland pot test; assay type: in vivo, Echinochloa crus-galli L.; conditions: active ingredient 500 g/ha, observed 18th to 23rd day, 0 = non-treated, 100 = complete kill
Text: (§1) Upland field soil was put into a 1/170,000 ha pot, and seed of various plants were sown. Then, when the plants reached predetermined leaf stages ((1) barnyardgrass: 1.3 to 2.8 leaf stages, (2) crabgrass: 1.0 to 2.8 leaf stages, (3) green foxtail: 1.3 to 2.6 leaf stages, (4) redroot pigweed: 0.1 to 1.2 leaf stages, (5) prickly sida: 0.1 to 1.2 leaf stages, (6) velvetleaf: 0.1 to 1.2 leaf stages, (7) tall morningglory: 0.1 to 1.5 leaf stages, (8) rice: 1.2 to 2.6 leaf stages, (9) wheat: 1.3 to 2.4 leaf stages, (10) corn, 2.1 to 3.2 leaf stages, (11) soybean: 0.1 to 0.4 leaf stage), a wettable powder or emulsifiable concentrate having the compound of the present invention formulated in accordance with a usual formulation method, was weighed so that the active ingredient would be a predetermined amount, and diluted with water in an amount of 500 L/ha. To the diluted solution, 0.1% (v/v) of agricultural spreader was added. The herbicide thus adjusted was applied by a small size sprayer for foliage treatment. On the 18th to 23rd days after the application of the herbicide, the growth of the respective plants was visually observed, and the herbicidal effects were evaluated by the growth controlling degrees (%) ranging from 0 (equivalent to the non-treated plot) to 100 (complete kill), whereby the results shown in Table 3, were obtained.

crabgrass [2] = assay: Test Example 1: foliage treatment, upland pot test; assay type: in vivo, Digitaria sanguinalis L.; conditions: active ingredient 500 g/ha, observed 18th to 23rd day, 0 = non-treated, 100 = complete kill
Text: as §1

green foxtail [3] = assay: Test Example 1: foliage treatment, upland pot test; assay type: in vivo, Setaria viridis L.; conditions: active ingredient 500 g/ha, observed 18th to 23rd day, 0 = non-treated, 100 = complete kill
Text: as §1

redroot pigweed [4] = assay: Test Example 1: foliage treatment, upland pot test; assay type: in vivo, Amaranthus retroflexus L.; conditions: active ingredient 500 g/ha, observed 18th to 23rd day, 0 = non-treated, 100 = complete kill
Text: as §1

prickly sida [5] = assay: Test Example 1: foliage treatment, upland pot test; assay type: in vivo, Sida spinosa L.; conditions: active ingredient 500 g/ha, observed 18th to 23rd day, 0 = non-treated, 100 = complete kill
Text: as §1

velvetleaf [6] = assay: Test Example 1: foliage treatment, upland pot test; assay type: in vivo, Abutilon theophrasti MEDIC.; conditions: active ingredient 500 g/ha, observed 18th to 23rd day, 0 = non-treated, 100 = complete kill
Text: as §1

rice [7] = assay: Test Example 1: foliage treatment, upland pot test; assay type: in vivo, Oryza sativa L.; conditions: crop, active ingredient 500 g/ha, observed 18th to 23rd day, 0 = non-treated, 100 = complete kill
Text: as §1

corn [8] = assay: Test Example 1: foliage treatment, upland pot test; assay type: in vivo, Zea mays L.; conditions: crop, active ingredient 500 g/ha, observed 18th to 23rd day, 0 = non-treated, 100 = complete kill
Text: as §1

soybean [9] = assay: Test Example 1: foliage treatment, upland pot test; assay type: in vivo, Glycine max Merr.; conditions: crop, active ingredient 500 g/ha, observed 18th to 23rd day, 0 = non-treated, 100 = complete kill
Text: as §1

barnyardgrass [10] = assay: Test Example 3: paddy pot test, application under submerged conditions; assay type: in vivo, Echinochloa crus-galli L.; conditions: submerged application at 0.5 leaf stage, visually observed 14 days after application, 0 = non-treated, 100 = complete kill
Method in brief: (§2)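 Visual rating of growth control (0% equals untreated, 100% complete kill) made 14 days after treatment. Compound, formulated as wettable powder or emulsifiable concentrate and diluted in water, was pipetted under submerged conditions at predetermined active-ingredient doses once weeds reached 0.5-leaf (barnyardgrass, bulrush) or primary-leaf (wapato, from tubers) stage. Pots of greenhouse paddy soil held 3–4 cm flooding.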

japanese bulrush = assay: as above; assay type: in vivo, Scirpus juncoides; conditions: submerged application at 0.5 leaf stage, visually observed 14 days after application, 0 = non-treated, 100 = complete kill
Method in brief: as §2

japanese ribbon wapato = assay: as above; assay type: in vivo, Sagittaria pygniaea; conditions: submerged application at primary leaf stage, visually observed 14 days after application, 0 = non-treated, 100 = complete kill
Method in brief: as §2

rice (var. Nihonbare) = assay: Test Example 3: paddy pot test, transplanted rice; assay type: in vivo, Oryza sativa L.; conditions: applied 4th day after transplantation, visually observed 21st day after application, 0 = non-treated, 100 = complete kill
Method in brief: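 Visual crop-injury rating (0 = as untreated, 100 = complete kill, %) taken 21 days post-application. Treatment: formulated compound, water-diluted, pipetted into 3–4 cm flood water at a preset active-ingredient dose, 4 days after transplanting 2-leaf Nihonbare rice 3 cm deep in puddled paddy soil.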

barnyardgrass [11] = assay: Test Example 2: soil surface treatment, upland pot test; assay type: in vivo, Echinochloa crus-galli L.; conditions: active ingredient 500 g/ha, observed 20th to 28th day
Method in brief: (§3)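 Pots (1/170,000 ha) filled with upland field soil were seeded, then treated on the following day by spraying the soil surface with diluted formulation (1,500 L/ha) at a fixed a.i. dose. Control was rated visually on a 0–100% scale at 20–28 days.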

crabgrass [12] = assay: as above; assay type: in vivo, Digitaria sanguinalis L.; conditions: active ingredient 500 g/ha, observed 20th to 28th day
Method in brief: as §3

green foxtail [13] = assay: as above; assay type: in vivo, Setaria viridis L.; conditions: active ingredient 500 g/ha, observed 20th to 28th day
Method in brief: as §3

redroot pigweed [14] = assay: as above; assay type: in vivo, Amaranthus retroflexus L.; conditions: active ingredient 500 g/ha, observed 20th to 28th day
Method in brief: as §3

prickly sida [15] = assay: as above; assay type: in vivo, Sida spinosa L.; conditions: active ingredient 500 g/ha, observed 20th to 28th day
Method in brief: as §3

velvetleaf [16] = assay: as above; assay type: in vivo, Abutilon theophrasti MEDIC.; conditions: active ingredient 500 g/ha, observed 20th to 28th day
Method in brief: as §3

corn [17] = assay: as above; assay type: in vivo, Zea mays L.; conditions: active ingredient 500 g/ha, observed 20th to 28th day
Method in brief: as §3

soybean [18] = assay: as above; assay type: in vivo, Glycine max Merr.; conditions: active ingredient 500 g/ha, observed 20th to 28th day
Method in brief: as §3

rice [19] = assay: as above; assay type: in vivo, Oryza sativa L.; conditions: active ingredient 500 g/ha, observed 20th to 28th day
Method in brief: as §3

Structure (SMILES)	Growth controlling degree (%) Barnyardgrass (barnyardgrass [1]) [%]	Growth controlling degree (%) Crabgrass (crabgrass [2]) [%]	Growth controlling degree (%) Green foxtail (green foxtail [3]) [%]	Growth controlling degree (%) Redroot pigweed (redroot pigweed [4]) [%]	Growth controlling degree (%) Prickly sida (prickly sida [5]) [%]	Growth controlling degree (%) Velvetleaf (velvetleaf [6]) [%]	Growth controlling degree (%) Rice (rice [7]) [%]	Growth controlling degree (%) Corn (corn [8]) [%]	Growth controlling degree (%) Soybean (soybean [9]) [%]	Growth controlling degree (%) Barnyardgrass (barnyardgrass [10]; active ingredient 250 g/ha) [%]	Growth controlling degree (%) Japanese bulrush (japanese bulrush; active ingredient 250 g/ha) [%]	Growth controlling degree (%) Japanese ribbon wapato (japanese ribbon wapato; active ingredient 250 g/ha) [%]	Growth controlling degree (%) Rice (rice (var. Nihonbare); active ingredient 250 g/ha) [%]	Growth controlling degree (%) Barnyardgrass (barnyardgrass [11]) [%]	Growth controlling degree (%) Crabgrass (crabgrass [12]) [%]	Growth controlling degree (%) Green foxtail (green foxtail [13]) [%]	Growth controlling degree (%) Redroot pigweed (redroot pigweed [14]) [%]	Growth controlling degree (%) Prickly sida (prickly sida [15]) [%]	Growth controlling degree (%) Velvetleaf (velvetleaf [16]) [%]	Growth controlling degree (%) Corn (corn [17]) [%]	other results
CC(C)C(c1cnccc1C(F)(F)F)N(C)C(=O)Cc1ccc(C#N)cc1 (racemic) [I-114]	80	80	70	60	80	70	30	60	70	100	95	95	30								
CC(C)C(c1cnccc1C(F)(F)F)N(C)C(=O)Cc1ccc(Cl)c(Cl)c1 (stereo not drawn) [I-28]	10	80	60	80	70	90	0	0	60	100	70	10	0	70	80	70	70	30	50	0	Growth controlling degree (%) Soyabean (soybean [18]): 0%
CC(C)C(c1cnccc1C(F)(F)F)N(C)C(=O)Cc1ccc(C(F)(F)F)cc1 (stereo not drawn) [I-31]	95	85	80	80	80	95	40	70	90	100	95		20	100	90	100	80	100	50	30	Growth controlling degree (%) Rice (rice [19]): 10%; Growth controlling degree (%) Soyabean (soybean [18]): 50%
CCOC(=O)N(C)C(c1cnccc1C(F)(F)F)c1cccc2ccccc12 (stereo not drawn) [I-54]	50	95	50	80	90	95	30	50	50												Growth controlling degree (%) Barnyardgrass (barnyardgrass [10]; active ingredient 500 g/ha): 100%; Growth controlling degree (%) Japanese bulrush (japanese bulrush; active ingredient 500 g/ha): 70%; Growth controlling degree (%) Japanese ribbon wapato (japanese ribbon wapato; active ingredient 500 g/ha): 0%; Growth controlling degree (%) Rice (rice (var. Nihonbare); active ingredient 500 g/ha): 20%
CC(C)C(c1cnccc1Cl)N(C)C(=O)Cc1cccc(C(F)(F)F)c1 (stereo not drawn) [I-68]	0	60	10	70	70	80	0	0	10												Growth controlling degree (%) Barnyardgrass (barnyardgrass [10]; active ingredient 125 g/ha): 95%; Growth controlling degree (%) Japanese bulrush (japanese bulrush; active ingredient 125 g/ha): 70%; Growth controlling degree (%) Japanese ribbon wapato (japanese ribbon wapato; active ingredient 125 g/ha): 50%; Growth controlling degree (%) Rice (rice (var. Nihonbare); active ingredient 125 g/ha): 10%
